Results taken from patent EP0106487A2, “Improvements in or relating to novel bridged hexahydrobenz(f)isoquinolines” (ELI LILLY AND COMPANY, priority 1982, dated 1984).
Where a name gives a salt, the structure may show the parent alone.

Key:
[1] = test system: Cox standard strain albino male mice; experiment: Mouse writhing inhibition assay (acetic acid-induced writhing); format: in vivo; settings: po, p.o. administration (gavage, 5% acacia suspension, sixty minutes before acetic acid), dose required to inhibit induced writhing by fifty percent
From the text: Mouse Writhing Inhibition Assay
Writhing, characterized by contraction of the abdominal musculature, extension of the hindlegs, and rotation of the trunk, was induced in Cox standard strain albino male mice. The mice,. weighing 18-24 grams, were fasted overnight and given the test compound by gavage in an acacia suspension (5%) sixty minutes before writhing was induced by the intraperitoneal administration of acetic acid (0.60 percent). Each treatment group consisted of 5 mice. The total number of writhes for the treatment group was determined during a 10-minute observation starting 5 minutes after acetic acid administration.
The results in the mouse writhing assay are presented as the effective dose in mg./kg. of the tested compound required to inhibit induced writhing in the test animals by fifty percent (ED50). Results are presented in Column II for both subcutaneous (s.c.) and oral (p.o.) administration of the test compound as compared to the reference compound meperidine.

[2] = test system: Cox standard strain albino male mice; experiment: as above; format: in vivo; settings: sc, s.c. administration, dose required to inhibit acetic acid (0.60 percent, i.p.) induced writhing by fifty percent

| SMILES | ED50 [1] [mg/kg] | ED50 [2] [mg/kg] |
| --- | --- | --- |
| CN1CCC23CCCC2(CCc2ccc(O)cc23)C1 (racemic) [Example 2, 1,2,3,4,5,6-hexahydro-3-methyl-4a,lOb-propanobenz[f]isoquinolin-9-ol maleate] | 17 | 2.4 |
| CN1CCC23CCCC2(CCc2ccccc23)C1 (racemic) [Example 8, 1,2,3,4,5,6-hexahydro-3-methyl-propanobenz-[f]isoquinoline hydrobromide] | 68 | 23 |
| COc1ccc2c(c1)C13CCCC1(CC2)CN(C)CC3.Cl (stereo not shown) [Example 1, 1,2,3,4,5,6-hexahydro-3-methyl-9-methoxy-4a,10b-propanobenz[f]isoquinoline hydrochloride] | 23 | 17 |
| COc1ccc2c(c1)C13CCCC1(CC2)CNCC3.Cl (stereo not shown) [Example 3, 1,2,3,4,5,6-hexahydro-9-methoxy-4a,10b-propanobenz[f]isoquinoline hydrochloride] | 66 | 56 |
| Oc1ccc2c(c1)C13CCCC1(CC2)CNCC3 (stereo not shown) [Example 4, 1,2,3,4,5,6-hexahydro-4a,10b-propanobenz[f]-isoquinolin-9-ol] | 78 | 52 |
| Oc1ccc2c(c1)C13CCCC1(CC2)CN(CC1CC1)CC3 (stereo not shown) [Example 6, 1,2,3,4,5,6-hexahydro-3-cyclopropylmethyl-4a,10b-propanobenz[f]isoquinolin-9-ol] | > 80 | 60 |
| C=CCN1CCC23CCCC2(CCc2ccc(O)cc23)C1 (stereo not shown) [Example 7, 1,2,3,4,5,6-hexahydro-3-(2-propenyl)-4a,10b-propanobenz-[f]isoquinolin-9-ol] | > 80 | > 80 |
| CCOC(=O)C1(c2ccccc2)CCN(C)CC1 [meperidine, reference compound] | 21 | 2.8 |
